The values that follow come from patent US5514694A, “Peptidyl ketoamides” (Georgia Tech Research Corp, priority 1993, dated 1996).

Like-named read-outs stand apart in the source and are kept apart here. Some results are limits rather than exact numbers.

Common to all, as to format: biochemical
Experiment [1] addresses T1, Calpain I from human erythrocytes (Homo sapiens, UniProt P07384).
T1 construct: Calpain I was purified from human erythrocytes; from tissue; host or cells: human erythrocytes
T1 sequence (P07384 1-714): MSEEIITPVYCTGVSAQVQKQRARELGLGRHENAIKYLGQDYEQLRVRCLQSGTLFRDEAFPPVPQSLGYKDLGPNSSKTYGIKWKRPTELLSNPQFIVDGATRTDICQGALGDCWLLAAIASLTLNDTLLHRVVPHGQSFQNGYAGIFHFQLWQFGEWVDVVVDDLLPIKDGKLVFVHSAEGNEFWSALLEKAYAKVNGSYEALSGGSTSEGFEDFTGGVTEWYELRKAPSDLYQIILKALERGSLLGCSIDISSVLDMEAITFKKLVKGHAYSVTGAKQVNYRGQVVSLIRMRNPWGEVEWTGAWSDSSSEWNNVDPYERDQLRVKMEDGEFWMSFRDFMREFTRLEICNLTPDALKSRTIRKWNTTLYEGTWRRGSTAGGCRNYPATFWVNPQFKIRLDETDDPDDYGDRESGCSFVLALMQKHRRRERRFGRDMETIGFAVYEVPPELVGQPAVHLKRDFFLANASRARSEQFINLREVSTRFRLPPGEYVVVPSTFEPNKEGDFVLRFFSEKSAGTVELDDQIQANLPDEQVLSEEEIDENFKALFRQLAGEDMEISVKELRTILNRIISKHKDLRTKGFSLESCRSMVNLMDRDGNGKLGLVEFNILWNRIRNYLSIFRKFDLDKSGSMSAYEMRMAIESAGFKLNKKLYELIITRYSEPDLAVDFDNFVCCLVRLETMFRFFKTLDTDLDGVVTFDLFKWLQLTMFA
T1 sequence (P04632 1-268 partner): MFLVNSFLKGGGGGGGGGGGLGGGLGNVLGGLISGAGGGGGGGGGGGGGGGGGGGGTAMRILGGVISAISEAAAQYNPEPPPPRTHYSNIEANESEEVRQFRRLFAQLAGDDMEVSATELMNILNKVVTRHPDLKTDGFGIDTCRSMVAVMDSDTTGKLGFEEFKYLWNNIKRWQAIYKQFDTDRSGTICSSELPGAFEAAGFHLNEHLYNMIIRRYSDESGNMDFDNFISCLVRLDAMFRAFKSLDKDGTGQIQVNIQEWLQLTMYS
Kind of experiment: Calpain I inhibition, Suc-Leu-Tyr-AMC hydrolysis (KI). Conditions: read-out: KI Cal I. The essentials:
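Human erythrocyte calpain I and rabbit calpain II were followed by fluorimetric AMC release from Suc-Leu-Tyr-AMC at pH 8.0 (25 mM Tris, 10 mM CaCl2). Cathepsin B was run at pH 5.2 with 0.5 mM DTT on a p-nitroanilide substrate, or with Z-Arg-Arg-AFC (ex 400/em 505 nm). Enzyme was added last, and KI was taken from Dixon or Lineweaver-Burk analysis.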

The target of another experiment is T2, cathepsin B (Homo sapiens, UniProt P07858).
T2 construct: purchased Sigma
Kind of experiment: Cathepsin B inhibition (KI). Conditions: read-out: KI Cat B. On the procedure:
(§1) HEPES, heparin, and A23187 were obtained from Calbiochem. Suc-Leu-Tyr-AMC and chromogenic substrates were obtained from Sigma. Calpain I was purified from human erythrocytes according to the method of Kitahara (Kitahara et al., J. Biochem. 95, 1759-1766) omitting the Blue-Sepharose step. Calpain II from rabbit muscle and cathepsin B were purchased from Sigma. Papain was purchased from Calbiochem.
(§2) Peptide α-ketoamides were assayed as reversible enzyme inhibitors. Various concentrations of inhibitors in Me2 SO were added to the assay mixture which contained buffer and substrate. The reaction was started by the addition of the enzyme and the hydrolysis rates were followed spectrophotometrically or fluorimetrically.
(§3) Calpain I from human erythrocytes and calpain II from rabbit were assayed using Suc-Leu-Tyr-AMC Sasaki et al., J. Biol. Chem. 259, 12489-12494 (1984); incorporated herein by reference!, and the AMC (7-amino-4-methylcoumarin) release was followed fluorimetrically (excitation at 380 nm, and emmision at 460 nm). Calpains were assayed in 25 mM Tris pH=8.0, 10 mM CaC12. Fluorescence was followed using a Gilson FL-1A fluorometer or a Perkin-Elmer 203 Fluorescence spectrometer. Cathepsin B was assayed in 20 mM sodium acetate pH=5.2, 0.5 mM dithiothreitol using Bz-Phe-Val-Arg-p-nitroanilide as substrate. Alternately, cathepsin B was assayed with Z-Arg-Arg-AFC Barrett and Kirschke, Methods Enzymol. 80, 535-561 (1981); incorporated herein by reference!, and the AFC (7-amino-4-trifluoromethylcoumarin) release was followed fluorimetrically (excitation at 400 nm and emmision at 505 nm). Papain was assayed in 100 mM KPO4, 1 mM EDTA, 2.5 mM cysteine pH=6.0 using Bz-Arg-AMC or Bz-Arg-NA Kanaoka et al., Chem. Pharm. Bull. 25, 3126-3128 (1977); incorporated herein by reference! as a substrate. The AMC (7-amino-4-methylcoumarin) release was followed fluorimetrically (excitation at 380 nm, and emmision at 460 nm). Enzymatic hydrolysis rates were measured at various substrate and inhibitor concentrations, and KI values were determined by either Lineweaver-Burk plots or Dixon plots.
(§4) A 0.1M Hepes, 0.5M NaCl, pH 7.5 buffer was utilized for human leukocyte elastase (HLE), porcine pancreatic elastase (PPE), chymotrypsin and cathepsin G. A 0.1 Hepes, 0.01 M CaCl2, pH 7.5 buffer was utilized for trypsin, plasmin, and coagulation enzymes. A 50 mM Tris.HCl, 2 mM EDTA, 5 mM cysteine, pH 7.5 was used as a buffer for papain. A 88 mM KH2 PO4, 12 mM Na2 HPO4, 1.33 mM EDTA, 2.7 mM cysteine, pH 6.0 solution was used as a buffer for cathepsin B. A 20 mM Hepes, 10 mM CaCl2, 10 mM mercatoethanol, pH 7.2 buffer was utilized for calpain I and calpain II.

Experiment [2] has as its target T3, human leukocyte elastase (HLE) (Homo sapiens, UniProt P08246).
T3 sequence (P08246 30-267): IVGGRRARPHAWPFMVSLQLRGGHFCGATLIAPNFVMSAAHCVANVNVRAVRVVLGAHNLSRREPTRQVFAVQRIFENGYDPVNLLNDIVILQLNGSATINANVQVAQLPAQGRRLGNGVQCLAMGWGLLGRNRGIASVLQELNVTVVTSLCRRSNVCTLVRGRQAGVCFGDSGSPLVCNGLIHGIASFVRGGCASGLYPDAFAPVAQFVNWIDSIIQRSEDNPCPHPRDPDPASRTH
Kind of experiment: HLE inhibition, MeO-Suc-Ala-Ala-Pro-Val-NA hydrolysis. Conditions: Table 4, Z-Leu--AA--CONH-R. How it is done:
as §2, §4
(§5) HLE and PPE were assayed with MeO-Suc-Ala-Ala-Pro-Val-NA and Suc-Ala-Ala-Ala-NA, respectively Nakajima et al., J. Biol. Chem. 254, 4027-4032 (1979); incorporated herein by reference!. Human leukocyte cathepsin G and chymotrypsin Aα were assayed with Suc-Val-Pro-Phe-NA Tanaka et al., Biochemistry 24, 2040-2047 (1985); incorporated herein by reference!. The hydrolysis of peptide 4-nitroanilides was measured at 410 nm ε410 =8800 M^-1 cm^-1; Erlanger et al., Arch. Biochem. Biophys. 95, pp 271-278 (1961); incorporated herein by reference!. Trypsin, thrombin, human plasma kallikrein, porcine pancreatic kallikrein, human factor XIa, and human plasmin were assayed with Z-Arg-SBzl or Z-Gly-Arg-SBu-i McRae et al., Biochemistry 20, 7196-7206 (1981); incorporated herein by reference!. All peptide thioester hydrolysis rates were measured with assay mixtures containing 4,4'-dithiodipyridine ε324 =19800 M^-1 cm^-1; Grasetti & Murray, Arch. Biochem. Biophys. 119, 41-49 (1967); incorporated herein by reference!.

In another experiment the target is calpain II from rabbit. As to the kind of experiment: Calpain II inhibition, Suc-Leu-Tyr-AMC hydrolysis (KI). Conditions: for Ki: read-out: KI Cal II. How it is done: as §1, §2, §3, §4
The target in experiment [3] is T4, Human leukocyte cathepsin G (Homo sapiens, UniProt P08311).
T4 sequence (P08311 21-255): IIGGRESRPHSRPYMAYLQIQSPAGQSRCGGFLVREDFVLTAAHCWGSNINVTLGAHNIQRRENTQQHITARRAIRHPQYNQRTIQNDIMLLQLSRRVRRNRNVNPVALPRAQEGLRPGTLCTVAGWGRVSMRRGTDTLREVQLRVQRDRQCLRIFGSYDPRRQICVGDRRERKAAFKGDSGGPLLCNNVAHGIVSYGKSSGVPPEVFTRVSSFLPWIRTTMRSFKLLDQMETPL
Kind of experiment: Cathepsin G inhibition, Suc-Val-Pro-Phe-NA hydrolysis. The settings on record: Table 4, Z-Leu--AA--CONH-R. How it is done:
as §2, §4, §5

Where [4] appears, read: Table 2, Z-Leu--AA--CONH--CH2 CH(OH)-R.

A word on the Ki: it is the dissociation constant of the complex between target and ligand, obtained from inhibition or displacement. As a reminder, the IC50 is the point on the concentration scale where inhibition reaches its midpoint. With `CCC(NC(=O)C(CC(C)C)NC(=O)OCc1ccccc1)C(=O)C(=O)NCCCN1CCOCC1` (stereo not drawn) [Z-Leu-Abu-CONH-(CH2)3 -4-morpholinyl, Z-Leu-Abu-CONH--(CH2)3 -4-Morpholinyl], the Ki in experiment [1] (Table 1, Z-Leu--AA--CONHR) worked out at 140 nM; on cathepsin B (Table 1, Z-Leu--AA--CONHR) it was 6900 nM; at calpain II from rabbit (Table 1, Z-Leu--AA--CONHR) it was 41 nM. In experiment [2], this compound displayed an IC50 above 217 µM.
Consider `CC[C@H](NC(=O)[C@H](CC(C)C)NC(=O)OCc1ccccc1)C(=O)C(=O)NCC(O)c1ccc(OCc2ccccc2)cc1` (stereo partly drawn) [Z-Leu-Abu-CONH--CH2 CH(OH)C6 H4 (4-OCH2 Ph)], for which the Ki in experiment [1] (setting [4]) amounted to 80 nM. The same compound returned an IC50 in experiment [3] above 102 µM.
Regarding `CCCCCCCNC(=O)C(=O)C(CC)NC(=O)C(CC(C)C)NC(=O)OCc1ccccc1` (stereo not drawn) [Z-Leu-Abu-CONH-C7 H15], the IC50 in experiment [2] is 52 µM; in experiment [3] it was above 116 µM.
On the same counts, the results for `CCCCCCCCNC(=O)C(=O)C(CC)NC(=O)C(CC(C)C)NC(=O)OCc1ccccc1` (stereo not drawn) [Z-Leu-Abu-CONH-C8 H17] are 45 µM and above 217 µM.
The matching figures for `CCCCCCCCCNC(=O)C(=O)C(CC)NC(=O)C(CC(C)C)NC(=O)OCc1ccccc1` (stereo not drawn) [Z-Leu-Abu-CONH-C9 H19]: 78 µM and 150 µM.
Regarding `CCC(NC(=O)C(CC(C)C)NC(=O)OCc1ccccc1)C(=O)C(=O)NCc1ccco1` (stereo not drawn) [Z-Leu-Abu-CONH-CH2 -2-furyl, Z-Leu-Abu-CONH--CH2 -2-Furyl], the Ki in experiment [1] (Table 1, Z-Leu--AA--CONHR) came out at 800 nM; at cathepsin B (Table 1, Z-Leu--AA--CONHR), 6000 nM; on calpain II from rabbit (Table 1, Z-Leu--AA--CONHR), 33 nM. For the same compound, inhibition in experiment [2] was half-maximal at 38 µM (IC50).
As to `CCC(NC(=O)C(CC(C)C)NC(=O)OCc1ccccc1)C(=O)C(=O)NCC(O)c1ccccc1` (stereo not drawn) [Z-Leu-Abu-CONH-CH2 CH(OH)-Ph, Z-Leu-Abu-CONH--CH2 CH(OH)Ph], the Ki worked out at 1100 nM in experiment [1] (setting [4]), 370 nM at cathepsin B (setting [4]) and 15 nM at calpain II from rabbit (setting [4]). The “inhibition of calpain II, in words” value with calpain II from rabbit is given as “best inhibitor for calpain II”.
Turning to `CCC(NC(=O)C(CC(C)C)NC(=O)OCc1ccccc1)C(=O)C(N)=O` (stereo not drawn) [Z-Leu-Abu-CONH-H], the concentration for half-maximal inhibition (IC50) in experiment [2] was above 120 µM; in experiment [3] it was above 217 µM.
The matching figures for `CCC(NC(=O)C(CC(C)C)NC(=O)OCc1ccccc1)C(=O)C(=O)NCC(C)C` (stereo not drawn) [Z-Leu-Abu-CONH-i-Bu]: 78 µM and 134 µM.
As for `CCCCNC(=O)C(=O)C(CC)NC(=O)C(CC(C)C)NC(=O)OCc1ccccc1` (stereo not drawn) [Z-Leu-Abu-CONH-n-Bu], the values for the IC50 in experiment [2] and in experiment [3] were 63 µM and 148 µM, respectively.
On the same counts, the results for `CCCNC(=O)C(=O)C(CC)NC(=O)C(CC(C)C)NC(=O)OCc1ccccc1` (stereo not drawn) [Z-Leu-Abu-CONH-n-Pr] are above 120 µM and above 217 µM.
For the compound `CCCC(NC(=O)C(CC(C)C)NC(=O)OCc1ccccc1)C(=O)C(=O)NCCCN1CCOCC1` (stereo not drawn) [Z-Leu-Nva-CONH-(CH2)3 -4-morpholinyl, Z-Leu-Nva-CONH--(CH2)3 -4-Morpholinyl], the Ki in experiment [1] (Table 1, Z-Leu--AA--CONHR) came to 250 nM; on cathepsin B (Table 1, Z-Leu--AA--CONHR), 4200 nM; at calpain II from rabbit (Table 1, Z-Leu--AA--CONHR), 100 nM.
On to `CC(C)CC(NC(=O)OCc1ccccc1)C(=O)NC(Cc1ccccc1)C(=O)C(=O)NCCc1ccccc1` (stereo not drawn) [Z-Leu-Phe-CONH-(CH2)2 Ph], for which the results for the IC50 in experiment [2] and in experiment [3] were 24 µM and 112 µM, respectively.
On the same counts, the results for `CC(C)CC(NC(=O)OCc1ccccc1)C(=O)NC(Cc1ccccc1)C(=O)C(=O)NCC(O)c1ccc(OCc2ccccc2)cc1` (stereo not drawn) [Z-Leu-Phe-CONH--CH2 CH(OH)C6 H4 (4-OCH2 Ph)] are 40 µM and 58 µM.
`CC(C)CC(NC(=O)OCc1ccccc1)C(=O)NC(Cc1ccccc1)C(=O)C(=O)NCc1ccc2ccccc2n1` (stereo not drawn) [Z-Leu-Phe-CONH-CH2 -2-quinolinyl, Z-Leu-Phe-CONH--CH2 -2-Quinolinyl]: the Ki came out at 110 nM in experiment [1] (Table 1, Z-Leu--AA--CONHR); 340 nM at cathepsin B (Table 1, Z-Leu--AA--CONHR); 23 nM on calpain II from rabbit (Table 1, Z-Leu--AA--CONHR).
In the case of “Z-Leu-Abu-CONH--(CH2)2 C6 H4 (3-OCH3) [Z-Leu-Abu-CONH-(CH2)2 C6 H4 (3-OCH3)]”, the Ki in experiment [1] (Table 1, Z-Leu--AA--CONHR) was determined as 110 nM; on cathepsin B (Table 1, Z-Leu--AA--CONHR) it was 310 nM; at calpain II from rabbit (Table 1, Z-Leu--AA--CONHR) it was 86 nM.
